Assay results published in patent US20110244063A1, “NOVEL SEBUM SECRETION INHIBITORY AGENT” (BASF Beauty Care Solutions France S.A.S., priority 2008, published 2011).

How the values were obtained:
Assay type in all cases: in vivo, human
Asian volunteers = test: Self-evaluation of skin texture (refinement of skin grain) after stopping treatment; details: 2 days after stopping the treatment, extract at 2%, zinc gluconate positive control
Method: (§1) The experiment was conducted on Caucasian and Asian volunteers according to the conditions described in Example 3 for 28 days of treatment (last application on D27 in the evening). Assessments carried out on D30 allowed the persistence of the effect of an extract according to the invention on the production of sebum to be evaluated, two days after stopping the treatment.
Results for skin texture: (self-evaluation)
Moreover, 2 days after stopping the treatment, 71% of the Asian volunteers who had applied the extract according to Example 1 a) at 2% declared that there was refinement of their skin grain (p<0.05). In comparison, only 52% of the volunteers in the group of volunteers who had applied the positive control (zinc gluconate) noticed an improvement in this parameter.

[1] = system: Caucasian and Asian volunteers; test: Clinical assessment of pore size and shiny appearance in volunteers, once-daily topical application; details: after 28 days of treatment, extract at 2%, zinc gluconate 1%
Method: (§2) The principle of this evaluation is based on the clinical and instrumental analysis of samples of secretions of sebum using Sebutape™ patches according to the conventional method.
(§3) The products tested were: • the extract according to the invention prepared in accordance with Example 1 a) is tested at final concentrations of from 0.5% to 2% of extract 1 a) diluted in water • an aqueous solution of zinc gluconate at 1% (10 mg/mL; 2.2×10^−2 mol/L) in water is used as positive control • no solution as negative control
(§4) The following treatment was carried out for each of the products tested: Caucasian and Asian volunteers applied a test product once a day, in blind conditions. Clinical and instrumental assessments, by application of Sebutape™ patches, were carried out on D0, D14 and D28 and the contents of these samples of Sebutape™ patches were analysed quantitatively by image analyser (polarimetric imaging).
as §1

[2] = system: Caucasian and Asian volunteers; test: Number of active sebaceous glands (number of spots on Sebutape patches, image analysis)
Method: as §2, §3
as §4, with “imaging). […]” for “imaging).”
as §1

[3] = system: Caucasian and Asian volunteers; test: Squalene content of sebum sampled with Sebutape patches (HPTLC, densitometry); details: after 28 days of treatment; zinc gluconate 1%; signed change
Method: as §2, §3, §4
Determination of the squalene taken in the Sebutape™ patches was carried out as follows:
The Sebutape™ patches were treated by extraction with 10 ml of ether. […]
The squalene spots were then quantified by densitometry using an instrument of the ChromatoScan CS-93 (Shimadzu) type. Reading was based on absorption at 450 nm and the area of the peaks was expressed in arbitrary units in the table of results given below.

zinc gluconate [Zinc gluconate 1%]
Volunteers who declared refinement of their skin grain (self-evaluation) (Asian volunteers): 52%
Reduction of pore size (clinical assessment) [1]: 17.5%
Active sebaceous glands, % Dn/D0, 2 days after D28 ([2]; number of spots on Sebutape patches 2 days after stopping the treatment compared against D0): −3.8%
Active sebaceous glands, % Dn/D0, D28 ([2]; number of spots on Sebutape patches after 28 days compared against D0): +8.5%
Change of content of squalene in the sebum [3]: −14%
